Measured values from patent US8747891B2, “Ceramide anionic liposome compositions” (The Penn State Research Foundation, priority 2011, dated 2014).

Key:
[1] = system: Pane 1 pancreatic cancer cells; test: MTS cell viability assay; type: cell-based; conditions: 24 hrs; 3.2 μM liposomes; 0.01, 0.1 or 1 μM vinblastine; p<0.05 free vs encapsulated vinblastine
Experimental: Pane 1 pancreatic cancer cells were treated with 3.2 μM anionic (A) and neutral ceramide (C6) or non-ceramide nanoliposomes that either contained 0.01, 0.1 or 1 μM vinblastine or PBS. Ghost liposomes contained no ceramide or vinblastine. Unencapsulated (free) vinblastine was also administered at similar concentrations. All treatments were for 24 hrs.
Cell viability was assessed by MTS assay, which measures cellular respiration as a function of reduction of MTS to formazene at 490 nm. […] N=6 individual samples for each condition, replicated in triplicate.
MTS (3-(4,5-dimethylthiazol-2-yl)-5-(3-carboxymethoxyphenyl)-2-(4-sulfophenyl)-2H-tetrazolium), in the presence of phenazine methosulfate (PMS), produces a reduced formazan product, whose purple color can be assessed. In living cells, reduced formazan has an absorbance maximum at 490-500 nm in phosphate-buffered saline. The MTS assay is often described as a ‘one-step’ MTT assay, which offers the convenience of adding the reagent straight to the cell culture without the intermittent steps required in the MTT assay. However this convenience makes the MTS assay susceptible to cololmetric interference as the intermittent steps in the MTT assay remove traces of colored compounds, whilst these remain in the microtiter plate in the one-step MTS assay.

primary human AML cells = test: Clonogeneic growth in semisolid media; type: cell-based; conditions: 12-14 days in semi-solid medium; FIG. 3A
Description: For FIG. 3A, primary human AML cells (n=5) were thawed and grown for 12-14 days in semi-solid medium with the indicated concentration of Lip-C6 or Lip-ghost and/or vinblastine.

## CC[C@]1(O)C[C@@H]2CN(CCc3c([nH]c4ccccc34)[C@@](C(=O)OC)(c3cc4c(cc3OC)N(C)[C@H]3[C@@](O)(C(=O)OC)[C@H](OC(C)=O)[C@]5(CC)C=CCN6CC[C@]43[C@@H]65)C2)C1 [vinblastine]
[1]
  cell viability (MTS): Only the high concentration of free vinblastine reduced cell viability
Primary human AML cells
  growth and survival / colony formation: potentiates the inhibitory activity of C6 ceramide nanoliposomes
